Tested on: 648629-189-R-J1-PDC spheroids with HUVEC/MSC, viability
Experiment: Anticancer human tumor 648629-189-R-J1-PDC patient-derived bladder carcinoma cell line growth inhibition [PI3K]
Conditions: for IC50: curve of first compound; for viability, T/C: stronger effect = lower value
Outline: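 Complex 3D spheroids (cancer cells + endothelial HUVEC + mesenchymal stem cells); drug pairs of targeted agent x inavolisib/alpelisib/duvelisib/copanlisib; half-log series from ~Cmax, max 10 microM if Cmax unknown; endpoint viability.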

[1] = second compound 0.0316 µM, first compound 0.0316 µM
[2] = second compound 0.0316 µM, first compound 0.1 µM
[3] = second compound 0.0316 µM, first compound 0.316 µM
[4] = second compound 0.0316 µM, first compound 1 µM
[5] = second compound 0.0316 µM, first compound 3.16 µM
[6] = second compound 0.0316 µM, first compound 10 µM
[7] = second compound 0.1 µM, first compound 0.0316 µM
[8] = second compound 0.1 µM, first compound 0.1 µM
[9] = second compound 0.1 µM, first compound 0.316 µM
[10] = second compound 0.1 µM, first compound 1 µM
[11] = second compound 0.1 µM, first compound 3.16 µM
[12] = second compound 0.1 µM, first compound 10 µM
[13] = second compound 0.316 µM, first compound 0.0316 µM
[14] = second compound 0.316 µM, first compound 0.1 µM
[15] = second compound 0.316 µM, first compound 0.316 µM
[16] = second compound 0.316 µM, first compound 1 µM
[17] = second compound 0.316 µM, first compound 3.16 µM
[18] = second compound 0.316 µM, first compound 10 µM
[19] = second compound 1 µM, first compound 0.0316 µM
[20] = second compound 1 µM, first compound 0.1 µM
[21] = second compound 1 µM, first compound 0.316 µM
[22] = second compound 1 µM, first compound 1 µM
[23] = second compound 1 µM, first compound 3.16 µM
[24] = second compound 1 µM, first compound 10 µM
[25] = second compound 3.16 µM, first compound 0.0316 µM
[26] = second compound 3.16 µM, first compound 0.1 µM
[27] = second compound 3.16 µM, first compound 0.316 µM
[28] = second compound 3.16 µM, first compound 1 µM
[29] = second compound 3.16 µM, first compound 3.16 µM
[30] = second compound 3.16 µM, first compound 10 µM
[31] = second compound 10 µM, first compound 0.0316 µM
[32] = second compound 10 µM, first compound 0.1 µM
[33] = second compound 10 µM, first compound 0.316 µM
[34] = second compound 10 µM, first compound 1 µM
[35] = second compound 10 µM, first compound 3.16 µM
[36] = second compound 10 µM, first compound 10 µM
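Further: spheroids exposed to agents for seven days before reading.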
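Wherever viability, T/C is given: percent of vehicle control luminescence where 100% = DMSO treated spheroids.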

## CCCS(=O)(=O)Nc1ccc(F)c(C(=O)c2c[nH]c3ncc(-c4ccc(Cl)cc4)cc23)c1F + Cc1nc(NC(=O)N2CCCC2C(N)=O)sc1-c1ccnc(C(C)(C)C(F)(F)F)c1
Second compound 0.0316 µM
  IC50: 5.13 µM
Second compound 0.1 µM
  IC50: 5.06 µM
Second compound 0.316 µM
  IC50: 4.81 µM
Second compound 1 µM
  IC50: 4.31 µM
Second compound 3.16 µM
  IC50: 3.69 µM
Second compound 10 µM
  IC50: < 0.0316 µM
[1]
  viability, T/C: 122%
[2]
  viability, T/C: 104%
[3]
  viability, T/C: 123%
[4]
  viability, T/C: 110%
[5]
  viability, T/C: 86.2%
[6]
  viability, T/C: 0.2%
[7]
  viability, T/C: 115%
[8]
  viability, T/C: 102%
[9]
  viability, T/C: 114%
[10]
  viability, T/C: 107%
[11]
  viability, T/C: 84%
[12]
  viability, T/C: 0.34%
[13]
  viability, T/C: 93.3%
[14]
  viability, T/C: 97.4%
[15]
  viability, T/C: 96.9%
[16]
  viability, T/C: 90.7%
[17]
  viability, T/C: 79%
[18]
  viability, T/C: 0.27%
[19]
  viability, T/C: 81.1%
[20]
  viability, T/C: 96.7%
[21]
  viability, T/C: 103%
[22]
  viability, T/C: 84.7%
[23]
  viability, T/C: 68.7%
[24]
  viability, T/C: 0.67%
[25]
  viability, T/C: 63.1%
[26]
  viability, T/C: 65.7%
[27]
  viability, T/C: 62%
[28]
  viability, T/C: 53.1%
[29]
  viability, T/C: 58%
[30]
  viability, T/C: 0.64%
[31]
  viability, T/C: 43.7%
[32]
  viability, T/C: 44.1%
[33]
  viability, T/C: 33.7%
[34]
  viability, T/C: 37%
[35]
  viability, T/C: 27.3%
[36]
  viability, T/C: 0.85%

## C[C@@H](NC(=O)c1ncnc(N)c1Cl)c1ncc(C(=O)Nc2cc(C(F)(F)F)c(Cl)cn2)s1 + Cc1nc(NC(=O)N2CCCC2C(N)=O)sc1-c1ccnc(C(C)(C)C(F)(F)F)c1
Second compound 0.0316 µM
  IC50: > 10 µM
Second compound 0.1 µM
  IC50: > 10 µM
Second compound 0.316 µM
  IC50: > 10 µM
Second compound 1 µM
  IC50: > 10 µM
Second compound 3.16 µM
  IC50: > 10 µM
Second compound 10 µM
  IC50: < 0.0316 µM
[1]
  viability, T/C: 101%
[2]
  viability, T/C: 93.8%
[3]
  viability, T/C: 98.8%
[4]
  viability, T/C: 116%
[5]
  viability, T/C: 107%
[6]
  viability, T/C: 106%
[7]
  viability, T/C: 107%
[8]
  viability, T/C: 92.4%
[9]
  viability, T/C: 95.4%
[10]
  viability, T/C: 108%
[11]
  viability, T/C: 120%
[12]
  viability, T/C: 118%
[13]
  viability, T/C: 81.2%
[14]
  viability, T/C: 101%
[15]
  viability, T/C: 83.4%
[16]
  viability, T/C: 93%
[17]
  viability, T/C: 90.9%
[18]
  viability, T/C: 94.5%
[19]
  viability, T/C: 74%
[20]
  viability, T/C: 73.2%
[21]
  viability, T/C: 78%
[22]
  viability, T/C: 77.9%
[23]
  viability, T/C: 88.7%
[24]
  viability, T/C: 82.6%
[25]
  viability, T/C: 53.3%
[26]
  viability, T/C: 56.6%
[27]
  viability, T/C: 59%
[28]
  viability, T/C: 55%
[29]
  viability, T/C: 66%
[30]
  viability, T/C: 54.7%
[31]
  viability, T/C: 40.2%
[32]
  viability, T/C: 35.4%
[33]
  viability, T/C: 39.2%
[34]
  viability, T/C: 36%
[35]
  viability, T/C: 36.6%
[36]
  viability, T/C: 42.7%

## Cn1ncnc1[C@H]1c2n[nH]c(=O)c3cc(F)cc(c23)N[C@@H]1c1ccc(F)cc1 + Cc1nc(NC(=O)N2CCCC2C(N)=O)sc1-c1ccnc(C(C)(C)C(F)(F)F)c1
Second compound 0.0316 µM
  IC50: > 0.1 µM
Second compound 0.1 µM
  IC50: > 0.1 µM
Second compound 0.316 µM
  IC50: > 0.1 µM
Second compound 1 µM
  IC50: 0.0894 µM
Second compound 3.16 µM
  IC50: 0.0159 µM
Second compound 10 µM
  IC50: < 0.000316 µM
Second compound 0.0316 µM, first compound 0.000316 µM
  viability, T/C: 117%
Second compound 0.0316 µM, first compound 0.001 µM
  viability, T/C: 101%
Second compound 0.0316 µM, first compound 0.00316 µM
  viability, T/C: 91.2%
Second compound 0.0316 µM, first compound 0.01 µM
  viability, T/C: 82.1%
[1]
  viability, T/C: 83.4%
[2]
  viability, T/C: 64.7%
Second compound 0.1 µM, first compound 0.000316 µM
  viability, T/C: 115%
Second compound 0.1 µM, first compound 0.001 µM
  viability, T/C: 96.9%
Second compound 0.1 µM, first compound 0.00316 µM
  viability, T/C: 93.5%
Second compound 0.1 µM, first compound 0.01 µM
  viability, T/C: 77.8%
[7]
  viability, T/C: 80.4%
[8]
  viability, T/C: 58.6%
Second compound 0.316 µM, first compound 0.000316 µM
  viability, T/C: 85.8%
Second compound 0.316 µM, first compound 0.001 µM
  viability, T/C: 94.5%
Second compound 0.316 µM, first compound 0.00316 µM
  viability, T/C: 90.8%
Second compound 0.316 µM, first compound 0.01 µM
  viability, T/C: 78.3%
[13]
  viability, T/C: 68.2%
[14]
  viability, T/C: 52.7%
Second compound 1 µM, first compound 0.000316 µM
  viability, T/C: 73.8%
Second compound 1 µM, first compound 0.001 µM
  viability, T/C: 74.8%
Second compound 1 µM, first compound 0.00316 µM
  viability, T/C: 70.6%
Second compound 1 µM, first compound 0.01 µM
  viability, T/C: 74.9%
[19]
  viability, T/C: 60.8%
[20]
  viability, T/C: 48.8%
Second compound 3.16 µM, first compound 0.000316 µM
  viability, T/C: 64.4%
Second compound 3.16 µM, first compound 0.001 µM
  viability, T/C: 57.6%
Second compound 3.16 µM, first compound 0.00316 µM
  viability, T/C: 58.4%
Second compound 3.16 µM, first compound 0.01 µM
  viability, T/C: 48.7%
[25]
  viability, T/C: 49.7%
[26]
  viability, T/C: 43.5%
Second compound 10 µM, first compound 0.000316 µM
  viability, T/C: 40.6%
Second compound 10 µM, first compound 0.001 µM
  viability, T/C: 36.1%
Second compound 10 µM, first compound 0.00316 µM
  viability, T/C: 39.7%
Second compound 10 µM, first compound 0.01 µM
  viability, T/C: 35%
[31]
  viability, T/C: 29.7%
[32]
  viability, T/C: 28.5%

Source: PubChem BioAssay AID1963974 (Molecular Pharmacology Branch, DTP, NCI, 2024)
